Experimental data from article PMC8353992 (Journal of medicinal chemistry, 2021).

Molecular target: SARS-CoV-2 3CL^pro (Severe acute respiratory syndrome coronavirus 2, UniProt P0DTD1)
Type: biochemical

Row | SMILES | primary biochemical potency
1 | O=C(Cc1cncnc1)N(Cc1cccc(Cl)c1)c1ccc(-c2cn[nH]c2)cc1 [Compound 43, N-[(3-Chlorophenyl)methyl]-N-[4-(1H-pyrazol-4-yl)phenyl]-2-pyrimidin-5-yl-acetamide] | micromolar levels
2 | O=C(Cc1cccnc1)N(Cc1cccc(Cl)c1)c1ccc(-c2cn[nH]c2)cc1 [Compound 42, N-[(3-Chlorophenyl)methyl]-N-[4-(1H-pyrazol-4-yl)phenyl]-2-(3-pyridyl)acetamide] | micromolar levels
